Each structure is given as a SMILES string. Activity calls are given as the source filed them. No cut-off for these calls is given here.

Test [1] deals with Mus musculus. The test is described as follows: Anticonvulsant activity in Kunming mouse assessed as reduction in ScPTZ-induced seizure at 30 mg/kg, ip administered before 30 mins of ScPTZ stimulation. The format is functional, organism-based.
Test [2] has as its system Mus musculus. As to the kind of experiment: Anticonvulsant activity in Kunming mouse assessed as reduction in MES-induced seizure at 30 to 300 mg/kg, ip measured after 30 mins. The format is functional, organism-based.
Test [3] has as its system Mus musculus. As to the kind of experiment: Anticonvulsant activity in Kunming mouse assessed as reduction in ScPTZ-induced seizure at 100 mg/kg, ip administered before 30 mins of ScPTZ stimulation. The format is functional, organism-based.
The subject of the next test is Cortical neurone. As to the kind of experiment: Antiepileptic actvity in C57BL/6 mouse Primary cortical neuron assessed as reduction in 4-AP-induced excitability measured for 8 mins by Fluo-8/AM staining based FLIPR assay. It is filed as functional, cell-based. Conditions: C57BL/6, Cortical neurone.
The test system of test [4] is Mus musculus. As to the kind of experiment: Anticonvulsant activity in Kunming mouse assessed as reduction in ScPTZ-induced seizure at 300 mg/kg, ip administered before 30 mins of ScPTZ stimulation. The format is functional, organism-based.

With `CCCCCc1nc2[nH]c(-c3ccc(Cl)cc3)cc(=O)n2n1`, the outcome in the test with Mus musculus [1] and with Mus musculus [3] was Active. Further, the result with Mus musculus [2] and in the test on Mus musculus [4] was inactive. In the test with Cortical neurone, the 50% inhibitory concentration (IC50) was determined as 8.25 µM.
For the molecule `O=c1cc(Cc2ccccc2)[nH]c2nc(Cc3ccccc3)nn12`, the result with Mus musculus [1], in the test with Mus musculus [2], in the test on Mus musculus [3] and with Mus musculus [4] was inactive.
As to `Cc1ccc(-c2nc3[nH]c(Cc4ccc(F)cc4)cc(=O)n3n2)cc1`, the result in the test with Mus musculus [1], with Mus musculus [2], with Mus musculus [3] and with Mus musculus [4] was inactive.
Take `O=c1cc(Cc2ccccc2)[nH]c2nc(Cc3ccc(F)cc3)nn12`: the result with Mus musculus [1], with Mus musculus [2], with Mus musculus [3] and in the test with Mus musculus [4] was inactive.
Turning to `CCCCc1nc2[nH]c(-c3ccc(Cl)cc3)cc(=O)n2n1`, the result in the test with Mus musculus [1], with Mus musculus [2], in the test on Mus musculus [3] and with Mus musculus [4] was inactive.
In the case of `Cc1ccc(-c2nc3[nH]c(Cc4ccc(Cl)cc4)cc(=O)n3n2)cc1`, the result in the test on Mus musculus [1], in the test on Mus musculus [2] and with Mus musculus [3] was inactive. Further, the outcome in the test with Mus musculus [4] was Active.
`CCCCCCc1nc2[nH]c(-c3ccccc3)cc(=O)n2n1`: the outcome in the test on Mus musculus [1], in the test on Mus musculus [2], in the test on Mus musculus [3] and with Mus musculus [4] was inactive.
For the molecule `O=c1cc(-c2ccc(Cl)cc2)[nH]c2nc(Cc3ccccc3)nn12`, the outcome in the test with Mus musculus [1], in the test on Mus musculus [2], in the test on Mus musculus [3] and with Mus musculus [4] was inactive.
In the case of `CCCCCc1nc2[nH]c(-c3ccccc3)cc(=O)n2n1`, the result in the test with Mus musculus [1], in the test with Mus musculus [2], in the test with Mus musculus [3] and in the test with Mus musculus [4] was inactive.
Regarding `Cc1ccc(Cc2cc(=O)n3nc(-c4ccc(C)cc4)nc3[nH]2)cc1`, the result in the test on Mus musculus [1], in the test on Mus musculus [2], in the test with Mus musculus [3] and with Mus musculus [4] was inactive.
Take `O=c1cc(Cc2ccc(Cl)cc2)[nH]c2nc(Cc3ccccc3)nn12`: the result in the test with Mus musculus [1], in the test on Mus musculus [2] and in the test with Mus musculus [3] was inactive. The result with Mus musculus [4] was Active.
Take `Cc1ccc(Cc2cc(=O)n3nc(Cc4ccccc4)nc3[nH]2)cc1`: the outcome with Mus musculus [1], with Mus musculus [2], in the test on Mus musculus [3] and in the test on Mus musculus [4] was inactive.
Take `CCCCCCCc1nc2[nH]c(-c3ccccc3)cc(=O)n2n1`: the result in the test with Mus musculus [1], in the test on Mus musculus [2], in the test with Mus musculus [3] and in the test with Mus musculus [4] was inactive.
Regarding `CCCCc1nc2[nH]c(-c3ccccc3)cc(=O)n2n1`, the result in the test with Mus musculus [1], with Mus musculus [2], in the test with Mus musculus [3] and in the test on Mus musculus [4] was inactive.
Consider `CCCCCCCc1nc2[nH]c(-c3ccc(Cl)cc3)cc(=O)n2n1`, for which the outcome in the test with Mus musculus [1], in the test with Mus musculus [2], in the test on Mus musculus [3] and with Mus musculus [4] was inactive.
On to `Cc1ccc(Cc2cc(=O)n3nc(-c4ccccc4)nc3[nH]2)cc1`, for which the outcome in the test on Mus musculus [1], in the test with Mus musculus [2], in the test on Mus musculus [3] and in the test with Mus musculus [4] was inactive.

One may read the IC50 as the concentration that inhibits the measured activity by half.

These data come from ChEMBL document CHEMBL4312021, “Discovery of [1,2,4]-triazolo [1,5-a]pyrimidine-7(4H)-one derivatives as positive modulators of GABAA1 receptor with potent anticonvulsant activity and low toxicity” (Eur J Med Chem, 2020).
